# From PubChem BioAssay AID1918949 (Molecular Pharmacology Branch, DTP, NCI, 2023)
# Tested on: K24384-001-R-PDC complex spheroid viability
# Assay: Anticancer human tumor K24384-001-R-PDC patient-derived pancreatic adenocarcinoma cell line growth inhibition
# Details: for IC50: curve of first compound; for viability, T/C: stronger effect = lower value
# How it was run: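 Complex spheroids of tumor cells with HUVEC and human MSCs, exposed to iadademstat combined with other agents. Each agent tested in half-log steps from near clinical Cmax (else 10 microM top), DMSO ≤0.25%.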
# [1] = second compound 0.1 µM, first compound 0.00949 µM
# [2] = second compound 0.1 µM, first compound 0.03 µM
# [3] = second compound 0.1 µM, first compound 0.0949 µM
# [4] = second compound 0.1 µM, first compound 0.3 µM
# [5] = second compound 0.316 µM, first compound 0.00949 µM
# [6] = second compound 0.316 µM, first compound 0.03 µM
# [7] = second compound 0.316 µM, first compound 0.0949 µM
# [8] = second compound 0.316 µM, first compound 0.3 µM
# [9] = second compound 1 µM, first compound 0.00949 µM
# [10] = second compound 1 µM, first compound 0.03 µM
# [11] = second compound 1 µM, first compound 0.0949 µM
# [12] = second compound 1 µM, first compound 0.3 µM
# [13] = second compound 3.16 µM, first compound 0.00949 µM
# [14] = second compound 3.16 µM, first compound 0.03 µM
# [15] = second compound 3.16 µM, first compound 0.0949 µM
# [16] = second compound 3.16 µM, first compound 0.3 µM
# [17] = second compound 10 µM, first compound 0.00949 µM
# [18] = second compound 10 µM, first compound 0.03 µM
# [19] = second compound 10 µM, first compound 0.0949 µM
# [20] = second compound 10 µM, first compound 0.3 µM
# 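Note: spheroids exposed to agents for seven days before luminescence viability reading.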
# 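Throughout, for viability, T/C: 100% = DMSO vehicle control viability.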
compound,measurement,setting,value
CCc1c2c(nc3ccc(O)cc13)-c1cc3c(c(=O)n1C2)COC(=O)[C@]3(O)CC + NC1CCC(NC2CC2c2ccccc2)CC1,IC50,second compound 0.1 µM,< 0.949 nM
same,IC50,second compound 0.316 µM,< 0.949 nM
same,IC50,second compound 1 µM,< 0.949 nM
same,IC50,second compound 3.16 µM,< 0.949 nM
same,IC50,second compound 10 µM,< 0.949 nM
same,"viability, T/C","second compound 0.1 µM, first compound 0.000949 µM",46.4%
same,"viability, T/C","second compound 0.1 µM, first compound 0.003 µM",36.2%
same,"viability, T/C",[1],30.9%
same,"viability, T/C",[2],8.66%
same,"viability, T/C",[3],5.82%
same,"viability, T/C",[4],4.86%
same,"viability, T/C","second compound 0.316 µM, first compound 0.000949 µM",46.2%
same,"viability, T/C","second compound 0.316 µM, first compound 0.003 µM",43.4%
same,"viability, T/C",[5],35%
same,"viability, T/C",[6],10.1%
same,"viability, T/C",[7],4.59%
same,"viability, T/C",[8],4.24%
same,"viability, T/C","second compound 1 µM, first compound 0.000949 µM",41.5%
same,"viability, T/C","second compound 1 µM, first compound 0.003 µM",39%
same,"viability, T/C",[9],31.5%
same,"viability, T/C",[10],9.09%
same,"viability, T/C",[11],5.26%
same,"viability, T/C",[12],4.62%
same,"viability, T/C","second compound 3.16 µM, first compound 0.000949 µM",47.4%
same,"viability, T/C","second compound 3.16 µM, first compound 0.003 µM",43%
same,"viability, T/C",[13],33.2%
same,"viability, T/C",[14],9.39%
same,"viability, T/C",[15],4.03%
same,"viability, T/C",[16],4.04%
same,"viability, T/C","second compound 10 µM, first compound 0.000949 µM",45%
same,"viability, T/C","second compound 10 µM, first compound 0.003 µM",38.1%
same,"viability, T/C",[17],26.3%
same,"viability, T/C",[18],9.03%
same,"viability, T/C",[19],3.67%
same,"viability, T/C",[20],3.1%
Nc1ccccc1NC(=O)c1ccc(CNC(=O)OCc2cccnc2)cc1 + NC1CCC(NC2CC2c2ccccc2)CC1,IC50,second compound 0.1 µM,376 nM
same,IC50,second compound 0.316 µM,444 nM
same,IC50,second compound 1 µM,447 nM
same,IC50,second compound 3.16 µM,401 nM
same,IC50,second compound 10 µM,321 nM
same,"viability, T/C",[1],86.6%
same,"viability, T/C",[2],84.9%
same,"viability, T/C",[3],76.2%
same,"viability, T/C",[4],61.3%
same,"viability, T/C","second compound 0.1 µM, first compound 0.949 µM",5.83%
same,"viability, T/C","second compound 0.1 µM, first compound 3 µM",0.14%
same,"viability, T/C",[5],79.7%
same,"viability, T/C",[6],82.1%
same,"viability, T/C",[7],83.7%
same,"viability, T/C",[8],70.8%
same,"viability, T/C","second compound 0.316 µM, first compound 0.949 µM",9.57%
same,"viability, T/C","second compound 0.316 µM, first compound 3 µM",0.15%
same,"viability, T/C",[9],80.3%
same,"viability, T/C",[10],89%
same,"viability, T/C",[11],92%
same,"viability, T/C",[12],70.6%
same,"viability, T/C","second compound 1 µM, first compound 0.949 µM",10.4%
same,"viability, T/C","second compound 1 µM, first compound 3 µM",0.13%
same,"viability, T/C",[13],79.9%
same,"viability, T/C",[14],88.2%
same,"viability, T/C",[15],80.2%
same,"viability, T/C",[16],65.2%
same,"viability, T/C","second compound 3.16 µM, first compound 0.949 µM",5.24%
same,"viability, T/C","second compound 3.16 µM, first compound 3 µM",0.16%
same,"viability, T/C",[17],84.1%
same,"viability, T/C",[18],90.7%
same,"viability, T/C",[19],88.7%
same,"viability, T/C",[20],53%
same,"viability, T/C","second compound 10 µM, first compound 0.949 µM",1.77%
same,"viability, T/C","second compound 10 µM, first compound 3 µM",0.2%
O=C(c1cc(Cc2n[nH]c(=O)c3ccccc23)ccc1F)N1CCN(C(=O)C2CC2)CC1 + NC1CCC(NC2CC2c2ccccc2)CC1,IC50,second compound 0.1 µM,> 10000 nM
same,IC50,second compound 0.316 µM,> 10000 nM
same,IC50,second compound 1 µM,> 10000 nM
same,IC50,second compound 3.16 µM,> 10000 nM
same,IC50,second compound 10 µM,> 10000 nM
same,"viability, T/C","second compound 0.1 µM, first compound 0.0316 µM",75.1%
same,"viability, T/C","second compound 0.1 µM, first compound 0.1 µM",79.7%
same,"viability, T/C","second compound 0.1 µM, first compound 0.316 µM",81.6%
same,"viability, T/C","second compound 0.1 µM, first compound 1 µM",86.5%
same,"viability, T/C","second compound 0.1 µM, first compound 3.16 µM",69.3%
same,"viability, T/C","second compound 0.1 µM, first compound 10 µM",91.8%
same,"viability, T/C","second compound 0.316 µM, first compound 0.0316 µM",74.6%
same,"viability, T/C","second compound 0.316 µM, first compound 0.1 µM",74.8%
same,"viability, T/C","second compound 0.316 µM, first compound 0.316 µM",79.5%
same,"viability, T/C","second compound 0.316 µM, first compound 1 µM",71.2%
same,"viability, T/C","second compound 0.316 µM, first compound 3.16 µM",79.4%
same,"viability, T/C","second compound 0.316 µM, first compound 10 µM",77.8%
same,"viability, T/C","second compound 1 µM, first compound 0.0316 µM",78.1%
same,"viability, T/C","second compound 1 µM, first compound 0.1 µM",75.8%
same,"viability, T/C","second compound 1 µM, first compound 0.316 µM",75.3%
same,"viability, T/C","second compound 1 µM, first compound 1 µM",72.4%
same,"viability, T/C","second compound 1 µM, first compound 3.16 µM",75.2%
same,"viability, T/C","second compound 1 µM, first compound 10 µM",81%
same,"viability, T/C","second compound 3.16 µM, first compound 0.0316 µM",81.9%
same,"viability, T/C","second compound 3.16 µM, first compound 0.1 µM",81.8%
same,"viability, T/C","second compound 3.16 µM, first compound 0.316 µM",77.8%
same,"viability, T/C","second compound 3.16 µM, first compound 1 µM",75.6%
same,"viability, T/C","second compound 3.16 µM, first compound 3.16 µM",69.7%
same,"viability, T/C","second compound 3.16 µM, first compound 10 µM",71.1%
same,"viability, T/C","second compound 10 µM, first compound 0.0316 µM",75.2%
same,"viability, T/C","second compound 10 µM, first compound 0.1 µM",101%
same,"viability, T/C","second compound 10 µM, first compound 0.316 µM",68.3%
same,"viability, T/C","second compound 10 µM, first compound 1 µM",73.4%
same,"viability, T/C","second compound 10 µM, first compound 3.16 µM",65%
same,"viability, T/C","second compound 10 µM, first compound 10 µM",68.8%
